Read-outs that look alike come from different tables or passages of the source.
Biological target: T1, CIB1 and αIIb interaction (CIB1-GST : F-αIIb peptide) (Homo sapiens, UniProt Q99828)
T1 construct: made in house; host or cells: BL-21 plus RIL cells (E. coli)
T1 sequence (Q99828 1-191): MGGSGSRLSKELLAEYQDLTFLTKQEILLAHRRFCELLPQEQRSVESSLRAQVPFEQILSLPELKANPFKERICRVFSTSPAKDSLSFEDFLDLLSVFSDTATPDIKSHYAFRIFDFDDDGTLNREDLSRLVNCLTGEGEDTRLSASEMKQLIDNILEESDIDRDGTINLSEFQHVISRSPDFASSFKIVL
Test: FP assay, 1536-well qHTS format (primary and confirmatory screen)
Format: binding

[1] = qHTS primary screen hits, Table S2, negative = inhibition
[2] = qHTS primary screen hits, Table S2, negative sign = inhibitory curve
[3] = qHTS primary screen hits, Table S2, read-out: IC50
[4] = qHTS primary screen of LOPAC/NPACT libraries, negative = inhibition
[5] = qHTS primary screen of LOPAC/NPACT libraries, negative sign = inhibitory curve
[6] = qHTS primary screen of LOPAC/NPACT libraries, read-out: IC50
[7] = qHTS primary screen hits, Table S2, negative sign = inhibitory curve, several classes where COUNT > 1

SMILES | Efficacy (%) [1] [%] | IC50 [3] [µM] | Efficacy (%) [4] [%] | Curve Class [5] | IC50 [6] [µM] | Curve Class [7] | other results
CC(C)(C)OC(=O)c1csc(-n2nc(-c3ccc(F)c(F)c3)c(-c3ccccc3)c2O)n1.O=C(O)C(F)(F)F [NCGC00356364-01] | -24 | 56.2 |  |  |  |  | Curve Class [2]: -2.4
COc1cccc(CNC(=O)C2=NC3SC=C(COCc4ccc(C(=O)O)cc4)C3C(=O)N2)c1 (centres unmarked) [NCGC00488702-01] |  |  | -27 | -1.4 | 5.6 |  | 
CCCc1ccc(-c2csc(NC(=O)c3ccncc3NS(=O)(=O)c3ccc(C)cc3)n2)cc1.O=C(O)C(F)(F)F [NCGC00318955-01] | -35 | 50.1 |  |  |  | -2.4 | 
O=C(Nc1ccc(Cl)c(Cl)c1)Nc1nnc(N2CCNCC2)s1.O=C(O)C(F)(F)F [NCGC00238616-01] | -35 | 79.4 |  |  |  | -2.4 | 
O=C1OCc2cc3cccc(O[C@@H]4O[C@H](CO)[C@@H](O)[C@H](O)[C@H]4O)c3c(O)c21 [NCGC00169010-02] |  |  | -30 | -2.4 | 22.4 |  | 
CN(C)CC/C=C1/c2ccccc2Sc2cc(Cl)ccc21.Cl [NCGC00162079-02] |  |  | -13 | -2.4 | 70.8 |  | 
NC(Cc1cc(O)c(O)cc1O)C(=O)O (centres unmarked) [NCGC00015503-06] |  |  |  |  |  |  | Curve Class: -2.1; Efficacy (%): -97%; IC50 (IC50 [μM]): 35.5 µM
O=C(O)C(F)(F)F.O=C1CC(c2ccc(F)cc2F)c2sc(N3CCOCC3)nc2N1 (centres unmarked) [NCGC00488253-02] | -42 | 50.1 |  |  |  | -2.4 | 
CCOC(=O)c1c(NC(=O)CN2CCCCC2)sc2c1CCN(C(=O)OCC)C2.O=C(O)C(F)(F)F [NCGC00092717-02] | -31 | 89.1 |  |  |  |  | Curve Class [2]: -2.4
CC(C)COc1ccc(-c2ccc(=O)n(CC(=O)NCCc3ccccc3)n2)cc1.O=C(O)C(F)(F)F [NCGC00262348-01] | -38 | 56.2 |  |  |  |  | Curve Class [2]: -2.4
O=C(CCCN1CCC(n2c(=O)[nH]c3ccccc32)CC1)c1ccc(F)cc1 [NCGC00016602-04] | -58 | 50.1 |  |  |  |  | Curve Class [2]: -2.4
O=c1ccc2ccc(O)c(O)c2o1 [NCGC00015349-05] |  |  | -13 | -2.4 | 70.8 |  | 
O=C1NCc2c1c1c3ccccc3[nH]c1c1[nH]c3ccccc3c21 [NCGC00261167-01] |  |  | -24 | -1.4 | 1.4 |  | 
CCN(CC)C(=O)[C@@H]1C=C2c3cccc4[nH]cc(c34)C[C@H]2N(C)C1 [NCGC00168265-02] | -141 | 63.1 |  |  |  |  | Curve Class [2]: -1.1
CNS(=O)(=O)c1ccc(Cc2c(-c3cccc(-c4ccccc4)c3)nn(-c3nc(C(=O)O)cs3)c2O)cc1.O=C(O)C(F)(F)F [NCGC00356637-01] | -55 | 79.4 |  |  |  | -3 | 
Cc1cccc(C)c1-n1c(=O)c2cnc(Nc3ccc(N4CCN(C)CC4)cc3)nc2n2c3ccccc3nc12 [NCGC00378811-02] |  |  | -28 | -2.4 | 56.2 |  | 
CN1CCN(c2ccc(C(=O)Nc3n[nH]c4ccc(Cc5cc(F)cc(F)c5)cc34)c(NC3CCOCC3)c2)CC1 [NCGC00484067-01] |  |  | -21 | -2.4 | 56.2 |  | 
NC[C@H](O)c1ccc(O)c(O)c1 [NCGC00159406-07] | -18 | 21.3 |  |  |  |  | 
CNC[C@H](O)c1cccc(O)c1 [NCGC00024257-06] | -15 | 5.6 |  |  |  | -1.2 | 
CC(C)N1CCc2c(sc(NC(=O)Cc3ccccc3)c2-c2nc3ccccc3s2)C1.O=C(O)C(F)(F)F [NCGC00184841-01] | -104 | 28.2 |  |  |  |  | Curve Class [2]: -2.1
O=C(O)C(F)(F)F.O=C1CC(c2ccccc2F)c2sc(N3CCOCC3)nc2N1 (centres unmarked) [NCGC00488254-02] | -42 | 56.2 |  |  |  | -2.4 | 
CCCC(=O)OC[C@@H](OC(=O)CCC)[C@@H](OC(=O)CCC)[C@H](Cn1c2nc(=O)[nH]c(=O)c-2nc2cc(C)c(C)cc21)OC(=O)CCC [NCGC00181300-01] | -140 | 2.8 |  |  |  | -1.1 | 
COc1cccc2c1C(=O)c1c(O)c3c(c(O)c1C2=O)C[C@@](O)(C(=O)CO)C[C@@H]3O[C@H]1C[C@H](N)[C@@H](O)[C@H](C)O1 [NCGC00263918-04] | -58 | 18.5 |  |  |  |  | 
Cn1c(=O)c2[nH]c(-c3ccc(S(=O)(=O)O)cc3)nc2n(C)c1=O [NCGC00015000-05] |  |  | -28 | -2.2 | 50.1 |  | 

SMILES | Efficacy (%) [1] [%] | IC50 [3] [µM] | Efficacy (%) [4] [%] | Curve Class [5] | IC50 [6] [µM] | Curve Class [7] | other results
COc1cccc2c1C(=O)c1c(O)c3c(c(O)c1C2=O)C[C@@](O)(C(=O)CO)CC3OC1CC(N2CCOC(OC)C2)C(O)C(C)O1 (some centres unmarked) [NCGC00319019-01] | -40 | 10 |  |  |  |  | Curve Class [2]: -1.4
Cc1ccnc(NC(=S)N2CC[C@@H](Nc3cccc(C(F)(F)F)c3)C2)c1 [NCGC00241356-01] | -31 | 79.4 |  |  |  | -2.4 | 
O=C(O)C(F)(F)F.O=C1CC(c2ccc(F)cc2Cl)c2sc(N3CCOCC3)nc2N1 (centres unmarked) [NCGC00488260-02] | -41 | 50.1 |  |  |  | -2.4 | 
O=C([C@@H]1CCCN(c2ccc3[nH]c(C4(n5cc(Cl)cn5)CC4)nc3n2)C1)N1CCCC1 [NCGC00485074-01] |  |  | -26 | -2.4 | 70.8 |  | 
CO/N=C(\C(=O)N[C@@H]1C(=O)N2C(C(=O)O)=C(CSc3nc(=O)c(O)nn3C)CSC12)c1csc(N)n1 (some centres unmarked) [NCGC00162111-02] |  |  | -18 | -1.2 | 20 |  | 
CN(C)CCc1c[nH]c2ccc(O)cc12 [NCGC00247724-01] | -23 | 112 |  |  |  |  | Curve Class [2]: -2.4
CN(C)[C@@H]1C(=O)C(C(=O)NCN2CCCC2)=C(O)[C@@]2(O)C(=O)C3=C(O)c4c(O)cccc4[C@@](C)(O)[C@H]3C[C@@H]12 [NCGC00263906-02] | -27 | 56.2 |  |  |  |  | Curve Class [2]: -2.4
CC1=C(C(=O)Nc2ccc(C(=O)O)cc2)C(c2ccccc2Cl)N=C(Nc2nc3ccccc3o2)N1.O=C(O)C(F)(F)F (centres unmarked) [NCGC00351025-01] | -29 | 50.1 |  |  |  | -2.4 | 
CC(NC(=O)CC(=O)O)c1nc2ccccc2c(=O)[nH]1 (centres unmarked) [NCGC00385407-01] |  |  | -145 | -2.1 | 28.2 |  | 
CCCCCCCCCCC/C=C\C(C)(C)/C=C\CCCC(=O)O [NCGC00015371-07] |  |  | -30 | -2.4 | 56.2 |  | 
C=C1c2cccc(O)c2C(O)=C2C(=O)[C@]3(O)C(O)=C(C(N)=O)C(=O)[C@@H](N(C)C)[C@@H]3[C@@H](O)[C@H]12.Cl [NCGC00179358-04] | -53 | 56.2 |  |  |  | -2.4 | 
O=C(Nc1ncc([N+](=O)[O-])s1)c1ccccc1O [NCGC00388427-01] |  |  | -31 | -2.4 | 44.7 |  | 
COc1ccc(/C=C/C(=O)Nc2ccccc2C(=O)O)cc1OC [NCGC00018185-09] | -29 | 39.8 |  |  |  | -2.2 | 
CCCCCCC/C=C\CCCCCCCCC(=O)O [NCGC00015764-04] |  |  | -27 | -2.4 | 31.6 |  | 
CCC(=O)NC(c1ccco1)c1cc(Br)c2cccnc2c1O (centres unmarked) [NCGC00183688-01] | -28 | 56.2 |  |  |  |  | Curve Class [2]: -2.4
COC(=O)C1C(O)CCC2CN3CCc4c([nH]c5ccccc45)C3CC21 (centres unmarked) [NCGC00015878-08] |  |  | -68 | -2.2 |  |  | 
CCCc1n[nH]c2c1C(c1cc(Cl)cc(Cl)c1O)C(C#N)=C(N)O2 (centres unmarked) [NCGC00402340-02] |  |  | -29 | -2.4 | 44.7 |  | 
CCOC(=O)C1=C(C)NC(C)=C(C(=O)OC)C1c1cccc(Cl)c1Cl (centres unmarked) [NCGC00015455-08] |  |  | -26 | -2.2 | 50.1 |  | 
Cc1cc(C2N=C(Nc3nc4ccccc4o3)NC3=C2C(=O)CCC3)n[nH]1.O=C(O)C(F)(F)F (centres unmarked) [NCGC00229726-01] | -26 | 56.2 |  |  |  | -2.4 | 
O=C(O)C(F)(F)F.O=S(=O)(Nc1ccc(C2CCNCC2)cc1)c1ccc(NCc2ccc(Br)cc2O)cc1 [NCGC00343916-01] | -31 | 56.2 |  |  |  | -2.4 | 
CC[PH](CC)(CC)[Au][S][C@@H]1O[C@H](COC(C)=O)[C@@H](OC(C)=O)[C@H](OC(C)=O)[C@H]1OC(C)=O [NCGC00160391-05] |  |  |  |  |  |  | Efficacy (%) (qHTS FP screen hits, Table S2, negative = inhibition): -30%; IC50 (qHTS FP screen hits, Table S2, read-out: IC50): 17.1 µM
CCCOc1ccccc1-c1nc(=O)c2nn[nH]c2[nH]1 [NCGC00016105-05] |  |  | -22 | -1.4 | 14.1 |  | 
C[n+]1c2cc(N)ccc2cc2ccc(N)cc21 [NCGC00178831-03] | -101 | 1.1 |  |  |  |  | Curve Class [2]: -1.3
Nc1c(C(=O)Nc2ccc(F)cc2)sc2nc(-c3cccs3)ccc12.O=C(O)C(F)(F)F [NCGC00371815-01] | -31 | 79.4 |  |  |  | -2.4 | 

Source: PMC11249646, “Small-Molecule Disruptors of the Interaction between Calcium- and Integrin-Binding Protein 1 and Integrin αIIbβ3 as Novel Antiplatelet Agents” (ACS Pharmacology & Translational Science, 2024)
